Source: patent US20150038545A1, “HYDROXYPHENYL PYRROLE COMPOUNDS CONTAINING AN HYDROXAMIC ACID AS HDAC INHIBITORS AND MEDICINAL APPLICATIONS THEREOF” (UNIVERSIDAD DEL PAÍS VASCO, priority 2011, published 2015)

Key:
Human HDAC9 = biological target: T1, Human HDAC9 (Homo sapiens, UniProt Q9UKV0); test: In vitro HDAC9 inhibition, fluorogenic peptide assay; assay type: biochemical; conditions: for IC50: read-out: IC50 (nM) of enzyme activity HDAC9
T1 construct: Amino acids 604-1066 with C-terminal His tag, MW=50.7 kDa; His (C); purchased BioMol, Hamburg, Germany
Procedure: All HDAC assays were performed using acetylated AMC-labeled peptide substrate: • Substrate for isoforms HDAC1, 2, 3, 4, 5, 6, 7, 9, 10, 11 and HeLa nuclear extract assays: Acetylated fluorogenic peptide from p53 residues 379-382 (RHKKAc) (BioMol. Cat. # KI-104). • Substrate for HDAC8 assays: Acetylated fluorogenic peptide from p53 residues 379-382 (RHKAcKAc) (BioMol. Cat. # KI-178).
Enzymes: • HDAC1 assay: 75 nM Human HDAC1 (GenBank Accession No. NM_004964): Full length with C-terminal GST tag, MW=79.9 kDa, expressed by baculovirus expression system in Sf9 cells (BioMol. Cat. # SE-456). • HDAC2 assay: 5 nM Human HDAC2 (GenBank Accession No. Q92769): Full length with C-terminal His tag, MW=60 kDa, expressed by baculovirus expression system in Sf9 cells (BioMol. Cat. # SE-500). • HDAC3 assay: 2.3 nM Human HDAC3/NcoR2 (GenBank Accession No. NM_003883 for HDAC3, GenBank Accession No.NM_006312 for NcoR2): Complex of human HDAC3, full length with C-terminal His tag, MW=49.7 kDa, and human NCOR2, N-terminal GST tag, MW=39 kDa, co-expressed in baculovirus expression system (BioMol. Cat. # SE-507). • HDAC4 assay: 266 nM Human HDAC4 (GenBank Accession No. NM_006037): Amino acids 627-1085 with N-terminal GST tag, MW=75.2 kDa, expressed in baculovirus expression system (BioMol, Hamburg, Germany). • HDAC5 assay: 588 nM Human HDAC5 (GenBank Accession No. NM_001015053): Full length with Nterminal GST tag, MW=150 kDa, expressed by baculovirus expression system in Sf9 cells (BioMol, Hamburg, Germany). • HDAC6 assay: 13 nM Human HDAC6 (GenBank Accession No. BC069243): Full length with N-terminal GST tag, MW=159 kDa, expressed by baculovirus expression system in Sf9 cells (BioMol. Cat. # SE-508). • HDAC7 assay: 962 nM Human HDAC7 (GenBank Accession No. AY302468): Amino acids 518-end with N-terminal GST tag, MW=78 kDa, expressed in baculovirus expression system (BioMol, Hamburg, Germany). • HDAC8 assay: 119 nM Human HDAC8 (GenBank Accession No. NM018486): Full length, MW=42 kDa, expressed in an E. coli expression system (BioMol. […]
The reactions were carried out in a 96-well microplate for fluorometry in a 50 μl reaction volume. […] The reaction was allowed to develop for 45 minutes at 30° C. with 5% CO2; then the fluorescent signal was measured with an excitation wavelength at 360 nm and an emission wavelength at 460 nm in a microplate-reading fluorometer (GeminiXS; Molecular Devices, Sunnyvale, Calif.). […] IC50 was calculated by fitting the experimental data to a dose-response curve. […]

RPMI-8226 = test: Cancer cell growth inhibition (CellTiter-Glo), RPMI-8226; assay type: cell-based, Human; conditions: Homo sapiens; Orthotopic Multiple Myeloma, RPMI-8226, 72 h treatment
Procedure: (§1) Cell culture-based assays were used to evaluate the ability of compounds of the invention to inhibit cancer cell growth.
(§2) Cells were obtained from the American Type Culture Collection (ATCC). Cells were cultured at 37° C. with 5% CO2 in the appropriate growth medium (see table below), and harvested respectively during the logarithmic growth period and counted with hemocytometer. The cell viability was examined by trypan blue exclusion. Cell concentrations were adjusted to 5.56×10^4 cells/ml with respective medium.
(§3) Stock solutions of test compounds and positive drugs Doxorubicin (Zhejiang, Haizheng, China), Cisplatin (Nanjing Zhiyao, China) and Mitomycin (Zhejiang, Haizheng, China) were prepared in dimethyl sulphoxide (DMSO) or PBS at 20 mM.
(§4) In order to determine the IC50 for each compound, experiments were carried out in 96-well plates and the cell lines seeded at a density of 5,000 cells/well. […] All treatments were performed in triplicate. 10 μl of drug solution was added to each well and incubated for 72 hours. At the end of the incubation, 100 μl of the CellTiter-Glo Reagent were added to each well and the contents were mixed for 2 munites on an orbital shaker to induce cell lysis. The plate was incubated at room temperature for 10 minutes to stabilize luminiscent signal, and luminiscent was recorded. […] In order to calculate IC50 values, dose-responsive curves were fitted using nonlinear regression model with a sigmoidal dose response.

SK-MES-1 = test: Cancer cell growth inhibition (CellTiter-Glo), SK-MES-1; assay type: cell-based, Human; conditions: Homo sapiens; Lung Cancer, SK-MES-1, 72 h treatment
Procedure: as §1, §2, §3, §4

LoVo = test: Cancer cell growth inhibition (CellTiter-Glo), LoVo; assay type: cell-based, Human; conditions: Homo sapiens, Colorectal Cancer, 72 h treatment
Procedure: as §1, §2, §3, §4

T1 sequence (Q9UKV0 604-1066 isoform Q9UKV0-7): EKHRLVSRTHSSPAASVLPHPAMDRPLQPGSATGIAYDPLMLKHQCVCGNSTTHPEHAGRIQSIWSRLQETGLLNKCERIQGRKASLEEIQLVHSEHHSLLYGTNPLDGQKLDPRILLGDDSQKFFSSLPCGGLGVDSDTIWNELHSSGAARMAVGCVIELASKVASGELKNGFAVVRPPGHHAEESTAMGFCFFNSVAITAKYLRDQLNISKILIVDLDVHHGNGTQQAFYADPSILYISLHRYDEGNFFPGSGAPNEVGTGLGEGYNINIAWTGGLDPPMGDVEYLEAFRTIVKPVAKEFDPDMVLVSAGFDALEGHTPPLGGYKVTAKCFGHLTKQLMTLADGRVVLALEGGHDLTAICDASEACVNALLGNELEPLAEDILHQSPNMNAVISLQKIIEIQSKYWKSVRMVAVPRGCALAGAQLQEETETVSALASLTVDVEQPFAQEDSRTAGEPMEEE

Structure (SMILES)	Selectivity against HDAC6 (IC50 HDACx/IC50 HDAC6) HDAC9 (Human HDAC9; IC50 HDAC9/IC50 HDAC6)	IC50 (Human HDAC9) [nM]	IC50 (RPMI-8226) [µM]	IC50 (SK-MES-1) [µM]	IC50 (LoVo) [µM]	melting point [°C]
COc1ccc(-c2cc(-c3ccccc3)[nH]c2C(=O)NCCCCCC(=O)NO)cc1 [Compound A, N-[6-(hydroxyamino)-6-oxohexyl]-3-(4-methoxyphenyl)-5-phenyl-1H-pyrrole-2-carboxamide, reference compound]	38.4	768	–	–	–	–
O=C(CCCCCNC(=O)c1[nH]c(-c2ccc(O)cc2)cc1-c1ccsc1)NO [Example 6, N-(5-(hydroxycarbamoyl)pentyl)-5-(4-hydroxyphenyl)-3-(3-thienyl)-1H-pyrrole-2-carboxamide]	–	80	4.8	3.7	1.24	–
O=C(CCCCCNC(=O)c1[nH]c(-c2ccccc2)cc1-c1ccc(O)cc1)NO [Example 1, N-(6-(hydroxyamino)-6-oxohexyl)-3-(4-hydroxyphenyl)-5-phenyl-1H-pyrrole-2-carboxamide]	–	–	0.7	2.88	1.4	99 to 100
O=C(CCCCCNC(=O)c1[nH]c(-c2ccc(O)cc2)cc1-c1ccccc1)NO [Example 2, N-(6-(hydroxyamino)-6-oxohexyl)-5-(4-hydroxyphenyl)-3-phenyl-1H-pyrrole-2-carboxamide]	–	–	4.47	4.8	2.69	224 to 225
O=C(CCCCCNC(=O)c1[nH]c(-c2ccc(O)cc2)cc1-c1ccoc1)NO [Example 5, 3-(3-furyl)-N-(5-(hydroxycarbamoyl)pentyl)-5-(4-hydroxy-phenyl)-1H-pyrrole-2-carboxamide]	–	27	6.2	3.62	1.08	–
